Measured values: patent US4103082A, “Aminocyclitol derivatives and process for producing the same” (priority 1975, dated 1978)
≈ marks a conversion by molar mass, not a printed value.

What was measured:
[1] = tested on: Bacillus subtilis ATCC 6633; test: paper disk method, inhibitory zone diameter; assay type: cell-based; details: read-out: inhibitory zone diameter; for zone of inhibition at 7.8 µg/mL: ATCC6633, 7.8 γ/ml; for zone of inhibition at 15.6 µg/mL: ATCC6633, 15.6 γ/ml; for zone of inhibition at 31.2 µg/mL: ATCC6633, 31.2 γ/ml; for zone of inhibition at 62.5 µg/mL: ATCC6633, 62.5 γ/ml; for zone of inhibition at 125 µg/mL: ATCC6633, 125 γ/ml; for zone of inhibition at 250 µg/mL: ATCC6633, 250 γ/ml; for zone of inhibition at 500 µg/mL: ATCC6633, 500 γ/ml; for zone of inhibition at 1000 µg/mL: ATCC6633, 1000 γ/ml; for zone of inhibition at 2000 µg/mL: ATCC6633, 2000 γ/ml
[2] = tested on: Proteus species C73-33; test: antibacterial activity (Minimum Inhibitory Concentration); assay type: cell-based; details: Proteus species C73-33; read-out: MIC

NC[C@H]1O[C@H](O[C@H]2C[C@@H](O)[C@H](N)C[C@@H]2N)[C@H](N)[C@@H](O)[C@@H]1O [5-Deoxyneamine, 5-deoxyneamine]
zone of inhibition at 7.8 µg/mL [1]: 11.2 mm
zone of inhibition at 15.6 µg/mL [1]: 13.8 mm
zone of inhibition at 31.2 µg/mL [1]: 15.7 mm
zone of inhibition at 62.5 µg/mL [1]: 20.5 mm
zone of inhibition at 125 µg/mL [1]: 23.2 mm
zone of inhibition at 250 µg/mL [1]: 25.6 mm
zone of inhibition at 500 µg/mL [1]: 28.3 mm
zone of inhibition at 1000 µg/mL [1]: 30.8 mm
zone of inhibition at 2000 µg/mL [1]: 33.4 mm
MIC [2]: 50 µg/mL (≈ 163 µM)

NC[C@H]1O[C@H](O[C@H]2[C@H](O)C[C@H](N)C[C@@H]2N)[C@H](N)[C@@H](O)[C@@H]1O [6-Deoxyneamine, 6-deoxyneamine]
zone of inhibition at 7.8 µg/mL [1]: 15 mm
zone of inhibition at 15.6 µg/mL [1]: 17.6 mm
zone of inhibition at 31.2 µg/mL [1]: 21.1 mm
zone of inhibition at 62.5 µg/mL [1]: 22.7 mm
zone of inhibition at 125 µg/mL [1]: 25.6 mm
zone of inhibition at 250 µg/mL [1]: 28.2 mm
zone of inhibition at 500 µg/mL [1]: 31.2 mm
zone of inhibition at 1000 µg/mL [1]: 33.2 mm
zone of inhibition at 2000 µg/mL [1]: 35.7 mm
MIC [2]: 100 µg/mL (≈ 326 µM)
